≈ marks a conversion by molar mass, not a printed value.
How the values were obtained:
Acute toxicity in mice = conditions: mouse, in vivo, ip, female mice
Procedure: (§1) The acute toxicity of 1-azaxanthone was evaluated in rats and mice. LD50 values ranged between 400-600 mg/kg (i.p. route) and between 600-2000 mg/kg (oral route) depending on species and sex.

rabbits = test: Hyperthermia induced in rabbits by lipopolysaccharide of Escherichia coli, preventive; assay type: in vivo; conditions: 0.1 μg/kg lipopolysaccharide
Procedure: (§2) Sprague-Dawley rats, Swiss mice, California rabbits and mongrel guinea pigs and cats were used. 1-azaxanthone was administered as a suspension in 0.5 % w/v of carboxymethyl-cellulose in distilled water for oral and i.p. administration.

granuloma tissue = test: Cotton-pellet granuloma; assay type: in vivo; conditions: 200 mg/kg/day per os, 5 consecutive days
Procedure: as §2, with “administration. When administered i.v. or to the nutrient liquid of the isolated tissues, a solution of the compound in isopropylidenglycerol (15 mg/ml) was used.” for “administration.”
Cotton-pellet granuloma (according to R. Meier et al., Experientia (Basel), 1950, 6, 469).

[1] = test system: Mycob. Butyricum induced arthritis; test: Mycob. Butyricum induced arthritis; assay type: in vivo; conditions: only in preventative treatment
Excerpt: Butyricum induced arthritis (only in preventative treatment).

mice [2] = test: Hot plate test in mice; assay type: in vivo; conditions: Mus musculus; oral, 1 hour before; plate 57°±0.5° C.; 95% confidence limits 11-39
Procedure: as §2, with “administration. When administered i.v. or to the nutrient liquid of the isolated tissues, a solution of the compound in isopropylidenglycerol (15 mg/ml) was used.” for “administration.”
Hot plate test in mice. An analgesimeter LETICA model 7000 was used, the temperature of the plate being maintained at 57°±0.5° C. The test compound was administered by oral route 1 hour before placing the animals on the plate.

[3] = test system: turpentine-induced pleurisy; test: Turpentine-induced pleurisy; conditions: in vivo
[4] = Acute toxicity in rats and mice (overall ranges); conditions: in vivo, depending on species and sex
Procedure: as §1

rat inflamed paw = test: Hyperalgesia in rat inflamed paw (Randall and Selitto); assay type: in vivo; conditions: po, per os, read-out: AID2 (dose that increases twice the analgesic threshold of the control animals)
Procedure: as §2, with “administration. When administered i.v. or to the nutrient liquid of the isolated tissues, a solution of the compound in isopropylidenglycerol (15 mg/ml) was used.” for “administration.”
Hyperalgesia in rat inflamed paw (according to L. O. Randall and J. J. Selitto, Arch. Int. Pharmacodyn. 1957, 111, 409).

guinea pig = test: Inhibition of the bronchoconstrictor response to bradykinin in guinea pig; assay type: in vivo; conditions: 8 mg/kg i.v.; 10 min after 6 μg and 8 min before 12 μg of bradykinin
Procedure: as §2, with “administration. When administered i.v. or to the nutrient liquid of the isolated tissues, a solution of the compound in isopropylidenglycerol (15 mg/ml) was used.” for “administration.”
Inhibition of the bronchoconstrictor response to bradykinin in guinea pig (according to H. Konzett and R. Rossler, ibid.). 1-azaxanthone (8 mg/kg i.v.) produced a 100% inhibition of the response induced by bradykinin when the test compound was administered 10 min after 6 μg and 8 min before 12 μg of bradykinin.

rats [5] = test: Diuretic activity in rats; assay type: in vivo; conditions: 10 mg/kg oral
Procedure: as §2, with “administration. When administered i.v. or to the nutrient liquid of the isolated tissues, a solution of the compound in isopropylidenglycerol (15 mg/ml) was used.” for “administration.”
1-azaxanthone was administered orally to rats (groups of 10) in a volume of 5 ml/rat immediately before allocating the animals to metabolism cages. The total volume of urine was measured 6 and 24 hours later. 10 mg/kg of 1-azaxanthone increased the total volume with respect to the control group by 94% in the first 6 hours and 44% in the 24 hours period.

cats = test: Physiologic peristaltic movements in cats; assay type: in vivo; conditions: 4 mg/kg endovenously
Procedure: as §2, with “administration. When administered i.v. or to the nutrient liquid of the isolated tissues, a solution of the compound in isopropylidenglycerol (15 mg/ml) was used.” for “administration.”

[6] = Solubility by the equilibrium (saturation) technique; assay type: physicochemical; conditions: 20-25° C.
Procedure: The solubilities of 1-azaxanthone in several solvents were determined at 20-25° C. by the equilibrium (saturation) technique, measuring the concentration spectrophotometrically at 335 nm or by high pressure liquid chromatography/spectrophotometry. The following values (in mg/ml) were obtained: water: 0.08; 0.1 N HCl: 0.07; 0.1 N NaOH: 0.07; buffer pH 7.4: 0.06; methanol: 7.6; ethanol: 6.2; propyleneglycol: 5.0; ethyl acetate: 20; chloroform: >50; dioxane: 65.

rats [7] = test: 6 months toxicity evaluation in rats; assay type: in vivo; conditions: 25, 50 and 100 mg/kg/day p.o.
cardiocirculatory system = test: Effect on the cardiocirculatory system; assay type: in vivo; conditions: rats, cats and dogs
rats [8] = test: Preliminary teratogenesis studies in rats; assay type: in vivo
rats [9] = test: Subacute toxicity study in rats (42 days); assay type: in vivo
[10] = test system: bilaterally suprarenalectomized rats; test: Carrageenan paw oedema in bilaterally suprarenalectomized rats; assay type: in vivo; conditions: 200 mg/kg per os
Procedure: as §2, with “administration. When administered i.v. or to the nutrient liquid of the isolated tissues, a solution of the compound in isopropylidenglycerol (15 mg/ml) was used.” for “administration.”
Carrageenan rat paw oedema (according to C. A. Winter et al., Proc. Soc. Exptl. Biol. N.Y. 1962, 111, 544).

Acute toxicity in rats = conditions: rat, in vivo
Procedure: as §1

abscess = test: Carrageenan-induced abscess; assay type: in vivo; conditions: 50×2 mg/kg per os
Procedure: as §2, with “administration. When administered i.v. or to the nutrient liquid of the isolated tissues, a solution of the compound in isopropylidenglycerol (15 mg/ml) was used.” for “administration.”
Carrageenan-induced abscess (according to K. F. Benitz and L. M. Hall, Arch. Int. Pharmacodyn. 1963, 144, 185).

rats [11] = test: 14 day oral tolerance of gastric and rectal mucosae and liver elimination of sulphobromophthalein; assay type: in vivo; conditions: 200 mg/kg/day oral, 14 consecutive days
mice [12] = test: Charcoal intestinal transit in mice; assay type: in vivo
Procedure: as §2, with “administration. When administered i.v. or to the nutrient liquid of the isolated tissues, a solution of the compound in isopropylidenglycerol (15 mg/ml) was used.” for “administration.”
Charcoal intestinal transit in mice. 1-azaxanthone was administered i.p. 1 hour before the oral administration of 0.1 ml/mouse of an active charcoal suspension (10 g of charcoal and 1 g of gum arabicum +70 ml of distilled water). 1.5 hours after the charcoal administration the animals were sacrificed, and the length travelled by the charcoal from the pylorus was measured.

O=c1c2ccccc2oc2ncccc12 [1-azaxanthone]
LD50 (Acute toxicity in mice): 600 mg/kg | reduction of the increase in rectal temperature (rabbits; 100 mg/kg i.p., control increase 1.85° C.): 0.7 °C | protection against increase in rectal temperature (rabbits; 200 mg/kg i.p.): completely protected the animals | inhibition of weight of dried granuloma tissue (granuloma tissue): 17.4% | inhibition of weight of wet granuloma tissue (granuloma tissue): 13.5% | activity in Mycob. Butyricum induced arthritis [1]: showed activity | ED50 (mice [2]): 21 mg/kg | activity in turpentine-induced pleurisy [3]: showed activity | LD50 ([4]; ip): 400 to 600 mg/kg | LD50 ([4]; oral): 600 to 2000 mg/kg | ED (2-fold analgesic threshold) (rat inflamed paw): 18.4 mg/kg | inhibition of response induced by bradykinin (guinea pig): 100% | sodium excretion (rats [5]): increased | increase of total urine volume with respect to control (rats [5]; 24 hours period): 44% | increase of total urine volume with respect to control (rats [5]; first 6 hours): 94% | inhibition of physiologic peristaltic movements (cats): inhibited physiologic peristaltic movements | solubility ([6]; 0.1 N HCl): 70 µg/mL (≈ 0.355 mM) | solubility ([6]; 0.1 N NaOH): 70 µg/mL (≈ 0.355 mM) | solubility ([6]; aqueous buffer, buffer pH 7.4): 60 µg/mL (≈ 0.304 mM) | solubility ([6]; organic solvent or mixture, chloroform): > 50000 µg/mL | solubility ([6]; organic solvent or mixture, dioxane): 65000 µg/mL (≈ 330 mM) | solubility ([6]; organic solvent or mixture, ethanol): 6200 µg/mL (≈ 31.4 mM) | solubility ([6]; organic solvent or mixture, ethyl acetate): 20000 µg/mL (≈ 101 mM) | solubility ([6]; organic solvent or mixture, methanol): 7600 µg/mL (≈ 38.5 mM) | solubility ([6]; organic solvent or mixture, propyleneglycol): 5000 µg/mL (≈ 25.4 mM) | solubility ([6]; water): 80 µg/mL (≈ 0.406 mM) | toxicity results compared with the 92 days study (rats [7]): almost the same as in the 92 days study | effect on the cardiocirculatory system (cardiocirculatory system): no effect on the cardiocirculatory system | teratogenic potential (rats [8]): did not show any clear specific teratogenic potential | reversibility of hepatomegaly (rats [9]; another study, on discontinuing the administration): fully reversible | hepatomegaly (rats [9]; oral, 42 days): developed a hepatomegaly | histology of hepatomegaly (rats [9]; oral, 42 days): increased volume of hepatic nucleoles | drug-related toxic effect (rats [9]; oral, 42 days, up to 200 mg/kg/day): did not show any drug-related toxic effect | inhibition of oedema [10]: 39% | LD50 (Acute toxicity in rats; ip, female rats): 420 mg/kg | LD50 (Acute toxicity in rats; po, orally, male rats): ~2000 mg/kg | inhibition of dry weight of the abscess (abscess): 48.4% | inhibition of wet weight of the abscess (abscess): 34.6% | liver elimination of sulphobromophthalein (rats [11]): eliminated sulphobromophthalein well | tolerance of gastric and rectal mucosae (rats [11]): tolerated the compound well | inhibition of charcoal intestinal transit (mice [12]; 4 mg/kg i.p.): 15% | inhibition of charcoal intestinal transit (mice [12]; 6.2 mg/kg i.p.): 22% | inhibition of charcoal intestinal transit (mice [12]; 12.5 mg/kg i.p.): 37% | inhibition of charcoal intestinal transit (mice [12]; doses lower than 4 mg/kg i.p.): inactive

Source: patent publication US4623648A, “1-azaxanthone for use as therapeutic agent as an antipyretic, analgesic, anti-inflammatory and bronchodilator” (priority 1981, dated 1986)
